According to patent US20240226049A1, “METHODS OF TREATMENT USING BEMPEDOIC ACID” (Esperion Therapeutics, Inc., priority 2023, published 2024):

Tests used:
[1] = tested on: statin-intolerant patients with or at high risk of CVD; type: in vivo
Description: The CLEAR OUTCOMES trial was a randomized, placebo-controlled, double-blind trial that enrolled patients at 1250 sites in 32 countries. An independent Data Monitoring Committee reviewed safety and efficacy data during the trial.
Patients 18 to 85 years of age were eligible for enrollment if they met either of two criteria for increased cardiovascular risk, a prior cardiovascular event (secondary prevention) or clinical features that placed them at high risk for a cardiovascular event (primary prevention). (Nicholls S. Lincoff A M, Bays H E, et al. Rationale and design of the CLEAR-outcomes trial: Evaluating the effect of bempedoic acid on cardiovascular events in patients with statin intolerance. Am Heart J. 2021 May; 235:104-112) All patients provided written informed consent. Patients had to report statin intolerance due to an adverse effect that started or increased during statin therapy and resolved or improved after statin therapy was discontinued. Patients could be enrolled if they tolerated a very low average daily statin dose (e.g., an average daily dose of rosuvastatin <5 mg, atorvastatin <10 mg, simvastatin <10 mg, lovastatin <20 mg, pravastatin <40 mg, fluvastatin <40 mg, or pitavastatin <2 mg). Other lipid-lowering therapies were permitted, including ezetimibe, niacin, bile acid resins, fibrates, and/or proprotein convertase subtilisin kexin type 9 (PCSK9) inhibitors. Full inclusion and exclusion criteria are provided in Nicholls et al. (Am Heart J. 2021).
Eligible patients entered a 4-week run-in period during which patients were treated with single-blind placebo. If patients were intolerant to placebo treatment or if adherence was <80% by tablet count, they were not eligible for randomization. Patients who successfully completed the run-in period were randomly assigned in a 1:1 ratio to receive bempedoic acid at an oral dose of 180 mg or matching placebo, administered daily. Beginning 6 months after enrollment, the central laboratory notified the investigator if the patient's LDL-cholesterol level was ≥25% higher than baseline. These patients were counseled on healthy dietary guidelines and reminded to take all lipid-regulating medications. If repeat testing confirmed that LDL-cholesterol value met the threshold criteria, the provider could adjust the lipid-lowering treatment regimen per standard of care and local guidelines.
The primary end point was the first occurrence of a composite of death from cardiovascular causes, nonfatal myocardial infarction (MI), nonfatal stroke, or coronary revascularization. The first key secondary end point was time to the first occurrence of the composite of cardiovascular death, nonfatal stroke, or MI. Further key secondary end points included time to first occurrence of each of the following outcomes tested in hierarchical order, fatal or nonfatal MI, coronary revascularization, fatal or nonfatal stroke, death from cardiovascular causes, and all-cause mortality.
This was an event-driven trial designed to provide at least 90% power to detect a 15% relative risk reduction for the primary composite end point at an overall two-sided significance level of 0.05. The trial required a minimum of 1620 primary composite events with ≥24 months of follow-up for all patients and at least 810 first key secondary end points. The average treatment duration was estimated to be 42 months and a lost-to-follow-up rate of 1% per year. Assuming a 3.59% annual event rate in the placebo group, enrollment of 12,600 patients was required, subsequently amended to 14,000. There were no interim efficacy analyses. A hierarchical approach was prespecified to evaluate sequentially each of the six key secondary efficacy end points with statistical significance at each step required to test the next hypothesis, thereby preserving the study-wise Type I error rate at 5%. All analyses were based on the intent-to-treat principle. […]

[2] = tested on: statin-intolerant patients with or at high risk of CVD; type: in vivo; remark: listed apart in the source
Protocol: CLEAR OUTCOMES (described in Example 1) was a randomized double-blind trial comparing orally administered bempedoic acid 180 mg once daily to placebo in statin-intolerant patients with or at high risk of CVD and an LDL-C ≥2.59 mmol/L. This prespecified analysis reports the time to event analysis of bempedoic acid versus placebo on the primary endpoint (MACE-4; composite of CV death, nonfatal MI, nonfatal stroke, or coronary revascularization) and key secondary end-point (MACE-3; death from cardiovascular causes, nonfatal myocardial infarction, nonfatal stroke) by baseline glycaemia status (diabetes, prediabetes, and normoglycaemia), and impact on HbA1c at 1 and 3 years and on NOD for subjects without diabetes at baseline.

[3] = full population, 180 mg oral daily, N = 6992
[4] = baseline diabetes, median 3.4 year follow up
[5] = baseline normoglycaemia, p<0.0001
[6] = baseline normoglycemia, median 3.4 year follow up
[7] = baseline pre-diabetes, median 3.4 year follow up
[8] = baseline pre-diabetes, p<0.0001
[9] = diabetes, primary prevention CVD risk group
[10] = diabetes, secondary prevention CVD risk group
[11] = vs placebo, baseline normoglycemia
[12] = vs placebo, baseline pre-diabetes
[13] = vs placebo, diabetes, primary prevention
[14] = vs placebo, diabetes, secondary prevention
[15] = vs placebo, history of one or more cardiovascular events
[16] = vs placebo, no prior history of cardiovascular events

## CC(C)(CCCCCC(O)CCCCCC(C)(C)C(=O)O)C(=O)O [Bempedoic Acid, Bempedoic acid]
[1]; compared with placebo, full population
  effect on other key secondary end points (time to first occurrence of stroke, death from cardiovascular causes, all-cause mortality): no significant effects
[1]; [3]
  3-component MACE, % of patients: (8.2) %
  Coronary revascularization, % of patients: (6.2) %
  Fatal and non-fatal MI, % of patients: (3.7) %
  Primary efficacy endpoint (MACE-4), % of patients: (11.7) %
[1]; human, in vivo
  New-onset type 2 diabetes mellitus, Hazard Ratio: 0.95
[1]; vs placebo, 180 mg oral daily
  reduction in risk of non-fatal myocardial infarction: about 27%
[1]; vs placebo, full population
  3-component MACE, Hazard Ratio: 0.85
  5 component MACE, Hazard Ratio: 0.86
  All-cause mortality, nonfatal MI, nonfatal stroke, or coronary revascularization, Hazard Ratio: 0.89
  Coronary revascularization, Hazard Ratio: 0.81
  Fatal and non-fatal MI, Hazard Ratio: 0.77
  Fatal and non-fatal stroke, Hazard Ratio: 0.85
  Fatal and nonfatal non-hemorrhagic stroke, Hazard Ratio: 0.78
  Hospitalization for unstable angina, Hazard Ratio: 0.66
  Non-fatal MI, Hazard Ratio: 0.73
  Non-fatal stroke, Hazard Ratio: 0.82
  Primary efficacy endpoint (MACE-4), Hazard Ratio: 0.87
[2]; [4]
  Time to First Adjudicated MACE-3, Diabetes, % of patients: 8.9%
  Time to First Adjudicated MACE-3, Diabetes, patients with event/patients: 279/3144
  Time to First Adjudicated MACE-4, Diabetes, % of patients: 11.9%
  Time to First Adjudicated MACE-4, Diabetes, patients with event/patients: 374/3144
[2]; baseline diabetes, p<0.0001
  LDL-C reduction compared to placebo at month 6, patients with diabetes: 21.2%
  LDL-C reduction compared to placebo at month 6 in absolute terms, patients with diabetes: 0.73 mmol/L
[2]; [5]
  LDL-C reduction compared to placebo at month 6, patients with normoglycaemia: 22.0%
  LDL-C reduction compared to placebo at month 6 in absolute terms, patients with normoglycaemia: 0.81 mmol/L
[2]; [6]
  Time to First Adjudicated MACE-3, Normoglycemia, % of patients: 7.2%
  Time to First Adjudicated MACE-3, Normoglycemia, patients with event/patients: 67/937
  Time to First Adjudicated MACE-4, Normoglycemia, % of patients: 10.1%
  Time to First Adjudicated MACE-4, Normoglycemia, patients with event/patients: 95/937
[2]; [7]
  Time to First Adjudicated MACE-3, Pre-Diabetes, % of patients: 7.9%
  Time to First Adjudicated MACE-3, Pre-Diabetes, patients with event/patients: 229/2911
  Time to First Adjudicated MACE-4, Pre-Diabetes, % of patients: 12.0%
  Time to First Adjudicated MACE-4, Pre-Diabetes, patients with event/patients: 350/2911
[2]; [8]
  LDL-C reduction compared to placebo at month 6, patients with pre-diabetes: 20.7%
  LDL-C reduction compared to placebo at month 6 in absolute terms, patients with pre-diabetes: 0.76 mmol/L
[2]; [9]
  Time to First Adjudicated MACE-3, Diabetes, Primary Prevention, % of patients: 4.9%
  Time to First Adjudicated MACE-3, Diabetes, Primary Prevention, patients with event/patients: 67/1369
  Time to First Adjudicated MACE-4, Diabetes, Primary Prevention, % of patients: 6.4%
  Time to First Adjudicated MACE-4, Diabetes, Primary Prevention, patients with event/patients: 87/1369
[2]; [10]
  Time to First Adjudicated MACE-3, Diabetes, Secondary Prevention, % of patients: 11.9%
  Time to First Adjudicated MACE-3, Diabetes, Secondary Prevention, patients with event/patients: 212/1775
  Time to First Adjudicated MACE-4, Diabetes, Secondary Prevention, % of patients: 16.2%
  Time to First Adjudicated MACE-4, Diabetes, Secondary Prevention, patients with event/patients: 287/1775
[2]; vs placebo, 180 mg oral daily
  reduction in risk of MACE (CV death, non-fatal MI or non-fatal stroke), adult with diabetes: about 20%
  reduction in risk of MACE (CV death, non-fatal MI, non-fatal stroke or coronary revascularization), adult with diabetes: about 17%
[2]; vs placebo, baseline diabetes
  Time to First Adjudicated MACE-3, Diabetes, HR: 0.80
  Time to First Adjudicated MACE-4, Diabetes, HR: 0.83
[2]; [11]
  Time to First Adjudicated MACE-3, Normoglycemia, HR: 0.96
  Time to First Adjudicated MACE-4, Normoglycemia, HR: 0.84
[2]; [12]
  Time to First Adjudicated MACE-3, Pre-Diabetes, HR: 0.92
  Time to First Adjudicated MACE-4, Pre-Diabetes, HR: 0.94
[2]; [13]
  Time to First Adjudicated MACE-3, Diabetes, Primary Prevention, HR: 0.65
  Time to First Adjudicated MACE-4, Diabetes, Primary Prevention, HR: 0.70
[2]; [14]
  Time to First Adjudicated MACE-3, Diabetes, Secondary Prevention, HR: 0.86
  Time to First Adjudicated MACE-4, Diabetes, Secondary Prevention, HR: 0.87
[2]; [15]
  reduction in risk of MACE (CV death, non-fatal MI or non-fatal stroke), adult with diabetes at risk for a secondary MACE: at least 14%
  reduction in risk of MACE (CV death, non-fatal MI, non-fatal stroke or coronary revascularization), adult with diabetes at risk for a secondary MACE: about 13%
[2]; [16]
  reduction in risk of MACE (CV death, non-fatal MI or non-fatal stroke), adult with diabetes at risk for a primary MACE: about 35%
  reduction in risk of MACE (CV death, non-fatal MI, non-fatal stroke or coronary revascularization), adult with diabetes at risk for a primary MACE: about 30%
